Reference: patent publication US12618845B2, “Methods and compositions for protein sequencing” (Quantum-Si Incorporated, priority 2018, dated 2026)
Entries after “also recorded” stand apart in the source; their conditions may differ. Square brackets hold non-standard residues; d marks the D form. Ends that are not written are not given here. Lys(N3) = [N-]=[N+]=NCCCC[C@H](N)C(=O)O

Tested on: amino acid at a terminal position of a polypeptide
Assay: not given
Conditions: amino acid identity at a terminal position of a polypeptide; phospho-Y also at an internal position; cited from earlier work

Substance | Binding Pref.
H. sapiens Src tyrosine kinase SH2 domain: amino acid recognition protein, SEQ ID NO: 24 | phospho-Y
H. sapiens p62 fragment 1-180: amino acid recognition protein, SEQ ID NO: 27 | K, R, H,; also recorded: W, F, Y
H. sapiens p62 fragment 1-310: amino acid recognition protein, SEQ ID NO: 26 | K, R, H,; also recorded: W, F, Y
H. sapiens p62 fragment 126-180: amino acid recognition protein, SEQ ID NO: 28 | K, R, H,; also recorded: W, F, Y
Rattus norvegicus p62 protein: amino acid recognition protein, SEQ ID NO: 30 | K, R, H,; also recorded: W, F, Y

Tested on: proline iminopeptidase (PIP)
Assay: Terminal amino acid cleavage of peptide-linker conjugates monitored by LCMS, PIP
Assay type: biochemical
Conditions: incubated with PIP
Method: (§1) The peptide-linker conjugates were evaluated for amino acid cleavage at peptide N-termini by N-terminal aminopeptidases (Table 6, below).
(§2) The peptide-linker conjugates shown in Table 6 were incubated with either proline iminopeptidase (“PIP”) or rat aminopeptidase N (“Rat APN”), and peptide cleavage was monitored by LCMS. All other cleavage reactions were measured in a similar manner.

Substance | Cleaved by PIP
DPDPDP{LYS(N3)} [Entry 9] | Yes
FPFPFP{LYS(N3)} [Entry 8] | Yes
KPKPKP{LYS(N3)} [Entry 10] | No
KPKPKP{LYS(N3)} [Entry 11] | Yes

Molecular target: T1, rat aminopeptidase N (Rat APN) (Rattus norvegicus, UniProt P15684)
T1 sequence (P15684 1-965): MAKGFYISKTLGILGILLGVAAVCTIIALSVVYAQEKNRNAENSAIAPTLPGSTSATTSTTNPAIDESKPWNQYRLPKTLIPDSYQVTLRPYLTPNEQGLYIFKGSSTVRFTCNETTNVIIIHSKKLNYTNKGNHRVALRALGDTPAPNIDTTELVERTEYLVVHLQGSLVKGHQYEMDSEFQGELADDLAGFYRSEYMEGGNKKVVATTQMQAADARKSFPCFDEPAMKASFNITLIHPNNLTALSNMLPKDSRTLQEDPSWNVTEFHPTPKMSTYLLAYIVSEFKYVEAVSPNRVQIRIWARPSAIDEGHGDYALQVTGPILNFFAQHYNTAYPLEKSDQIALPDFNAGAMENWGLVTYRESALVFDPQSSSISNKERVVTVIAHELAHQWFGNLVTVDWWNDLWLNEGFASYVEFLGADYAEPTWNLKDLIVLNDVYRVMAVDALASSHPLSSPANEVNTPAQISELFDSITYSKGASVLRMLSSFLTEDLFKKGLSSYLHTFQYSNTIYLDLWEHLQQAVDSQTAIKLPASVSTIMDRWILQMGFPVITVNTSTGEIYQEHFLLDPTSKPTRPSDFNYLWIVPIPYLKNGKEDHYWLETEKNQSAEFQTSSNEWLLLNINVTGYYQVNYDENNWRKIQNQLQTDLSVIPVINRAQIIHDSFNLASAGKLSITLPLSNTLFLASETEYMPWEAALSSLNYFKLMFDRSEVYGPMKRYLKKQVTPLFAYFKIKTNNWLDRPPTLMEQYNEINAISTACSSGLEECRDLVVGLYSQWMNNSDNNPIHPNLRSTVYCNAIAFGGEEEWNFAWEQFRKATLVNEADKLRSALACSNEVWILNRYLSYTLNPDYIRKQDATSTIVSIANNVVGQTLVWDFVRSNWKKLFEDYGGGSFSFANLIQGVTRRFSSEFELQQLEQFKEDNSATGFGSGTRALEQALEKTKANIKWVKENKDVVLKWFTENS
Assay: Terminal amino acid cleavage of peptide-linker conjugates monitored by LCMS, Rat APN
Assay type: biochemical
Conditions: incubated with Rat APN
Method: as §1, §2

Cleaved by Rat APN | Substance
Yes | AAMAAM{LYS(N3)} [Entry 7]
Yes | DDMDDM{LYS(N3)} [Entry 5]
Yes | FFMFFM{LYS(N3)} (FFMFFM[Lys(N3)]; also: oligo linker) [Entry 6, 73, aromatic class, oligo linker]
No | KKMKKM{LYS(N3)} [2] (KKMKKM[Lys(N3)]; also: oligo linker) [Entry 2, 71, positive class, oligo linker]
No | KKMKKM{LYS(N3)} [3] (KKMKKM[Lys(N3)]; also: oligo-PEG linker) [Entry 3, 71, positive class, oligo-PEG linker]
Yes | KKMKKM{LYS(N3)} [4] (KKMKKM[Lys(N3)]; also: PEG4 linker) [Entry 4, 71, positive class, PEG4 linker]
